Results from patent US12617762B2, “Carboxy derivatives with antiinflamatory properties” (Sitryx Therapeutics Limited, priority 2019, dated 2026).
Like-named read-outs stand apart in the source and are kept apart here.

Columns and labels:
[1] = tested on: IL-1β cytokine output from THP-1s; assay: THP-1 AlphaLISA IL-1β cytokine inhibition assay; assay type: cell-based; details: for IC50: Homo sapiens, THP-1, differentiated THP-1 cells, LPS then nigericin; for IL-1β lowering, result in words: THP-1 IL-1β assay
Procedure, shortened: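 IL-1β release by AlphaLISA, expressed as % inhibition against +/− LPS controls on each plate. Differentiation: PMA, 72 h. Sequence: 30 min compound pre-treatment, LPS 24 h, Nigericin 1 h before supernatant harvest, all at 37° C./5% CO2.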

[2] = tested on: IL-6 cytokine output from THP-1s; assay: THP-1 AlphaLISA IL-6 cytokine inhibition assay; assay type: cell-based; details: Homo sapiens, THP-1, differentiated THP-1 cells, LPS then nigericin
Description: The cytokine inhibition profiles of compounds of formula (I) were determined in a differentiated THP-1 cell assay. All assays were performed in RPMI-1640 growth medium (Gibco), supplemented with 10% fetal bovine serum (FBS; Gibco), 1% penicillin-streptomycin and 1% sodium pyruvate unless specified otherwise. The IL-1β cytokine inhibition assay was run in a background of differentiated THP-1 cells as described below. All reagents described were from Sigma-Aldrich unless specified otherwise. Compounds were prepared as 10 mM DMSO stocks.
THP-1 cells were expanded as a suspension up to 80% confluence in appropriate growth medium. Cells were harvested, suspended, and treated with an appropriate concentration of phorbol 12-myristate 13-acetate (PMA) over a 72 hr period (37° C./5% CO2).
Following 72 hrs of THP-1 cell incubation, cellular medium was removed and replaced with fresh growth media containing 1% of FBS. Working concentrations of compounds were prepared separately in 10% FBS treated growth medium and pre-incubated with the cells for 30 minutes (37° C./5% CO2). Following the 30 minute compound pre-incubation, THP-1s were treated with an appropriate concentration of LPS and the cells were subsequently incubated for a 24 hr period (37° C./5% CO2). An appropriate final concentration of Nigericin was then dispensed into the THP-1 plates and incubated for 1 hour (37° C./5% CO2) before THP-1 supernatants were harvested and collected in separate polypropylene 96-well holding plates.
Reagents from an IL-1β and IL-6 commercial kit (Perkin Elmer) were prepared and run according to the manufacturer's instructions. Subsequently, fluorescence signal detection in a microplate reader was measured (EnVision® Multilabel Reader, Perkin Elmer).
Percentage inhibition was calculated per cytokine by normalising the sample data to the high and low controls used within each plate (+/− LPS respectively).

[3] = tested on: NRF2 (nuclear factor erythroid 2-related factor 2); assay: NRF2 +/-GSH activation assay (DiscoverX PathHunter NRF2 translocation kit, U2OS cells); assay type: cell-based; details: for NRF2 activation +GSH Emax / NRF2 activation −GSH Emax: normalised to DMF high control
Procedure, shortened: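 Activation is expressed as percent of plate DMF (high) versus no-DMF (low) controls, from luminescence after 6 h compound exposure at 37 °C of U2OS PathHunter cells. The +GSH condition used compound pre-incubated 30 min in 6 mM working GSH; −GSH cells received compound directly.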

[4] = Hepatocyte stability assay, mouse; assay type: in vitro ADME; details: mouse, hepatocytes; for hepatocyte CLint at 10 μM: Hepatocyte stability Clint; for half-life at 10 μM: Hepatocyte stability T½
Procedure, shortened: (§1)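 Metabolic stability was measured as depletion of 10 μM compound in thawed hepatocytes (0.5×10^6 cells/mL, 37° C, up to 60 min). Intrinsic clearance came from the slope of log-transformed percentage remaining.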

[5] = Hepatocyte stability assay, human; assay type: in vitro ADME; details: human, hepatocytes; for hepatocyte CLint at 10 μM: Hepatocyte stability Clint; for half-life at 10 μM: Hepatocyte stability T½
Procedure, shortened: as §1

[6] = +GSH, 30 minute compound-GSH pre-incubation, read-out: NRF2 activation +GSH EC50
[7] = −GSH, U2OS PathHunter cells, 6 hours compound treatment, read-out: NRF2 activation −GSH EC50

SMILES	IC50 [1]	IC50 [2]	EC50 [3, 6]	NRF2 activation +GSH Emax ([3]; +GSH)	EC50 [3, 7]	NRF2 activation −GSH Emax ([3]; −GSH)	hepatocyte CLint at 10 μM [4]	half-life at 10 μM [4]	hepatocyte CLint at 10 μM [5]	half-life at 10 μM [5]	IL-1β lowering, result in words [1]
C=C(Cc1nc(-c2ccc(CCC3CC3)cc2)no1)C(=O)O [Example 76, 2-((3-(4-(2-cyclopropylethyl)phenyl)-1,2,4-oxadiazol-5-yl)methyl)acrylic acid]	28.2 µM	5.1 µM									
C=C(Cc1nc(C2(c3ccc(OC(F)(F)F)cc3)CC2)no1)C(=O)O [Example 49, 2-((3-(1-(4-(trifluoromethoxy)phenyl)cyclopropyl)-1,2,4-oxadiazol-5-yl)methyl)acrylic acid]	12.4 µM		57.5 µM	56%	49.2 µM	109%	15 µL/min/1e6 cells	86 min	8 µL/min/1e6 cells	172 min	
C=C(Cc1ccccc1Cl)C(=O)O [2-(2-chlorobenzyl)acrylic acid, reference compound]	> 100 µM		> 100 µM	9%	> 100 µM	2%	95 µL/min/1e6 cells		21 µL/min/1e6 cells		
C=C(Cc1nc(Cc2cc(Cl)cc(Cl)c2)no1)C(=O)O [Example 16, 2-((3-(3,5-dichlorobenzyl)-1,2,4-oxadiazol-5-yl)methyl)acrylic acid]	45.6 µM		23.6 µM	149%	19.4 µM	180%	29 µL/min/1e6 cells	45 min	< 4 µL/min/1e6 cells	> 362 min	
C=C(Cc1nc(Cc2ccc(C(F)(F)F)cc2)no1)C(=O)O [Example 42, 2-((3-(4-(trifluoromethyl)benzyl)-1,2,4-oxadiazol-5-yl)methyl)acrylic acid]	27 µM		> 100 µM	8%	> 100 µM	63%	11 µL/min/1e6 cells	118 min	< 3 µL/min/1e6 cells	> 460 min	
C=C(Cc1nnc(CCCCCCCC)s1)C(=O)O [Example 37, 2-((5-octyl-1,3,4-thiadiazol-2-yl)methyl)acrylic acid]	14.6 µM		9.5 µM	139%	8.4 µM	162%	> 481 µL/min/1e6 cells	< 3 min	32 µL/min/1e6 cells	40 min	
C=C(Cc1nc(-c2ccc(CCCCC)cc2)no1)C(=O)O [Example 23, 2-((3-(4-pentylphenyl)-1,2,4-oxadiazol-5-yl)methyl)acrylic acid]	4.6 µM		2.2 µM	162%	1.6 µM	209%	> 460 µL/min/1e6 cells	< 3 min	321 µL/min/1e6 cells	5 min	
C=C(Cc1nc(CCc2ccc(Cl)cc2)no1)C(=O)O [Example 5, 2-((3-(4-chlorophenethyl)-1,2,4-oxadiazol-5-yl)methyl)acrylic acid]	45.3 µM		50.4 µM	63%	42.4 µM	74%	48 µL/min/1e6 cells	40 min	8 µL/min/1e6 cells	174 min	
C=C(Cc1nc(C2(c3ccc(OC)cc3)CC2)no1)C(=O)O [Example 45, 2-((3-(1-(4-methoxyphenyl)cyclopropyl)-1,2,4-oxadiazol-5-yl)methyl)acrylic acid]	38.8 µM		> 100 µM	9%	> 100 µM	55%	33 µL/min/1e6 cells	49 min	8 µL/min/1e6 cells	178 min	
[2H]C([2H])([2H])C([2H])([2H])C([2H])([2H])C([2H])([2H])C([2H])([2H])C([2H])([2H])C([2H])([2H])C([2H])([2H])c1noc(CC(=C)C(=O)O)n1 [Example 34, 2-((3-(octyl-d17)-1,2,4-oxadiazol-5-yl)methyl)acrylic acid]	9.5 µM		4.7 µM	167%	3.7 µM	222%	374 µL/min/1e6 cells	4 min	78 µL/min/1e6 cells	18 min	
C=C(Cc1nc(CCCCCCC(C)(F)F)no1)C(=O)O [Example 31, 2-((3-(7,7-difluorooctyl)-1,2,4-oxadiazol-5-yl)methyl)acrylic acid]	> 100 µM		40.9 µM	127%	35 µM	178%	42 µL/min/1e6 cells	27 min	5 µL/min/1e6 cells	246 min	not effective
C=C(Cc1nc(C2CCCCCCC2)no1)C(=O)O [Example 63, 2-((3-cyclooctyl-1,2,4-oxadiazol-5-yl)methyl)acrylic acid]	> 100 µM		58 µM	49%	25.8 µM	114%	23 µL/min/1e6 cells	60 min	8 µL/min/1e6 cells	169 min	not effective
C=C(Cc1nc(C2(c3cccc(Cl)c3)CC2)no1)C(=O)O [Example 21, 2-((3-(1-(3-chlorophenyl)cyclopropyl)-1,2,4-oxadiazol-5-yl)methyl)acrylic acid]	> 100 µM		44 µM	81%	31.7 µM	125%	62 µL/min/1e6 cells	28 min	21 µL/min/1e6 cells	83 min	not effective
C=C(Cc1nc(CCCCCCCC(F)(F)F)no1)C(=O)O [Example 11, 2-((3-(8,8,8-trifluorooctyl)-1,2,4-oxadiazol-5-yl)methyl)acrylic acid]	8.2 µM		13.1 µM	149%	11.4 µM	185%	56 µL/min/1e6 cells	18 min	30 µL/min/1e6 cells	42 min	
C=C(Cc1nc(Cc2ccc(CCCCC)cc2)no1)C(=O)O [Example 28, 2-((3-(4-pentylbenzyl)-1,2,4-oxadiazol-5-yl)methyl)acrylic acid]	7.7 µM		4 µM	201%	3 µM	264%	> 460 µL/min/1e6 cells	< 3 min	103 µL/min/1e6 cells	12 min	
C=C(Cc1nc(-c2ccc(CCCC)cc2)no1)C(=O)O [Example 18, 2-((3-(4-butylphenyl)-1,2,4-oxadiazol-5-yl)methyl)acrylic acid]	15.3 µM		3.8 µM	159%	3.5 µM	207%	> 460 µL/min/1e6 cells	< 3 min	159 µL/min/1e6 cells	11 min	
C=C(Cc1nc(Cc2ccc(OC(F)(F)F)cc2)no1)C(=O)O [Example 46, 2-((3-(4-(trifluoromethoxy)benzyl)-1,2,4-oxadiazol-5-yl)methyl)acrylic acid]	41.9 µM		36.2 µM	51%	31.1 µM	106%	17 µL/min/1e6 cells	76 min	< 3 µL/min/1e6 cells	> 447 min	
